This note sets out measurements from patent publication US20180147223A1 (priority 2016, published 2018).

One experiment has as its target BoNT/A LC (Clostridium botulinum, UniProt P0DPI0). In words: biochemical. The class given is biochemical, C. botulinum. To be noted: for inhibition at 100 µM: read-out: % of Inhibition at 100 μM.
The target in experiment [1] is recombinant light chain A (rLCA) (Clostridium botulinum, UniProt P0DPI0). In words: biochemical. More on the design: species or system C. botulinum.
recombinant light chain A (rLCA), sequence (P0DPI0 2-448 limits assumed): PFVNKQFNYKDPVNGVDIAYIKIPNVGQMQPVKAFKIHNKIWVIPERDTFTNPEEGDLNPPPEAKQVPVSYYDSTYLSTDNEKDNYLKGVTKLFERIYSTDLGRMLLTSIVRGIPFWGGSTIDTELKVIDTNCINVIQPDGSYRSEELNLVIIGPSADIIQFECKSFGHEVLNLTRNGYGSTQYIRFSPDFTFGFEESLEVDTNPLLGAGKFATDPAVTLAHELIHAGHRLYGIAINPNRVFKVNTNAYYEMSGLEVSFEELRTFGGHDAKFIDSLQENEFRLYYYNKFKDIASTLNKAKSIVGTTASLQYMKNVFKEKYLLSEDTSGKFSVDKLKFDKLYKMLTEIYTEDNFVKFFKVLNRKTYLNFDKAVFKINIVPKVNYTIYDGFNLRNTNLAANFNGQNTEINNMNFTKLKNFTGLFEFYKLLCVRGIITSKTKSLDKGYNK
The target in a further experiment is LC of BoNT/A (Clostridium botulinum, UniProt P0DPI0). In words: biochemical. The class given is biochemical, C. botulinum.
LC of BoNT/A, sequence (P0DPI0 2-448 limits assumed): as above
For a further experiment, the target named is BoNT/A (Clostridium botulinum, UniProt P0DPI0). The class given is cell-based, C. botulinum.
BoNT/A, sequence (P0DPI0 whole entry, looked up): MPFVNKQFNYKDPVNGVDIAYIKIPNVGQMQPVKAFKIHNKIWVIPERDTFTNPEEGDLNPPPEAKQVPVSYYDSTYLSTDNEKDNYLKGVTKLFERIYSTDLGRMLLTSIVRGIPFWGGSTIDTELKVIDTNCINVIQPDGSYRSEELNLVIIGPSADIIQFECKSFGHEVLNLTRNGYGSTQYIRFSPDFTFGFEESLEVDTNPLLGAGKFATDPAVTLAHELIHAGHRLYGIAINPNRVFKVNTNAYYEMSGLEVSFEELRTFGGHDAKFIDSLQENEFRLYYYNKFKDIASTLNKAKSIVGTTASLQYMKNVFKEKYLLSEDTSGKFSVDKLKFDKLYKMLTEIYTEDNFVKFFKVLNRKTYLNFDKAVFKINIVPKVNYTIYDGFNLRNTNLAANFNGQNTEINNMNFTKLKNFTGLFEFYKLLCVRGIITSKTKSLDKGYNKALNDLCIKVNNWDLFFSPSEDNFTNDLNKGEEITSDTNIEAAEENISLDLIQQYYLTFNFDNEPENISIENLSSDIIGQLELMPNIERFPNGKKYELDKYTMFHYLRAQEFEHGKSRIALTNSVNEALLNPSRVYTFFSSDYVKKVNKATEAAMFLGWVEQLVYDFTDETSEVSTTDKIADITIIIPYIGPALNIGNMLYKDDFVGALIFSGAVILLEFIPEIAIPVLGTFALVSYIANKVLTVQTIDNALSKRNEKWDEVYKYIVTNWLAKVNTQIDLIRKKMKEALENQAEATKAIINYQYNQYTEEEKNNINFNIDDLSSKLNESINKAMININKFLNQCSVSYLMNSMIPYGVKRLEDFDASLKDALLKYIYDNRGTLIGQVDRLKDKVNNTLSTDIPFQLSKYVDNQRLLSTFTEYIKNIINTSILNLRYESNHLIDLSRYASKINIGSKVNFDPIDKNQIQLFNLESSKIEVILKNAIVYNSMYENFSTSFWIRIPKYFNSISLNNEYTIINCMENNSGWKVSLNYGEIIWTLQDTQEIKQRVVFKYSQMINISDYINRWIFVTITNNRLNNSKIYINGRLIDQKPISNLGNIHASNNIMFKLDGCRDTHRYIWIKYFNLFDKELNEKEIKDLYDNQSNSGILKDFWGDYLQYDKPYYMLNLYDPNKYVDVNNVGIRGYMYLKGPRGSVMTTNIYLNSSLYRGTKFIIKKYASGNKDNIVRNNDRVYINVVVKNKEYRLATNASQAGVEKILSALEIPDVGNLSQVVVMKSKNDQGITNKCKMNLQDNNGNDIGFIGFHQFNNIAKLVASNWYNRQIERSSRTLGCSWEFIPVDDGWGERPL

Structures are written as SMILES. Where “and” joins values, the source holds several entries; their conditions need not be identical. Equal values may be shown once. Where only a bound is given, the exact number is not on record here.

BoNT/A LC, sequence (P0DPI0 2-448 limits assumed): as the sequence (P0DPI0 2-448 limits assumed) above

On to `O=c1ccc2cc3c(-c4ccc([N+](=O)[O-])cc4)coc3cc2o1` [Compound 1, 3-(4-nitrophenyl)-7H-furo[3,2-g][1]benzopyran-7-one], for which, on BoNT/A LC, 6.5 µM corresponded to half-maximal inhibition (IC50), the “concentration at which near 100% inhibition (saturation) is reached” value is “about 81 μM” and the inhibition at 100 µM is 100%. In experiment [1], the half-inhibitory concentration (IC50) was found to be 10 µM. Besides, on LC of BoNT/A, the Vmax is 2.064 RFU/s and 2.79 RFU/s and 2.55 RFU/s; the type of inhibition result is reported as “non-competitive inhibition”; the α was 2.76 (±1.12) and 1.38 (±0.33) and 1.8 (±0.30); the “α′” value was 1.705 (±0.79) and 1.155 (±0.18) and 1.24 (±0.12). Besides, the inhibition constant (Ki) at LC of BoNT/A (Ki value) was 14.2 µM and 17.5 µM and 14.7 µM. Further, on BoNT/A, the “inhibition of SNAP-25 cleavage by BoNT/A in M17 cells” value is “showed inhibition” and the “inhibition of endogenous SNAP-25 cleavage in M-17-TR2 cells” value (shortened to “inhibition … in M-17-TR2 cells”) was “significantly inhibit”.

With `O=c1oc2c(O)c(O)cc3c(=O)oc4c(O)c(O)cc1c4c23` [Compound 2, 2,3,7,8-Tetrahydroxy-chromeno[5,4,3-cde]chromene-5,10-dione], at BoNT/A LC, it took 0.65 ± 0.032 µM to reach half-maximal inhibition (IC50) and the inhibition at 100 µM came out at 101%. In addition, the half-inhibitory concentration (IC50) in experiment [1] amounted to 1.62 µM.

On to `O=C1C=C2CC3(O)COc4c(ccc(O)c4O)C3=C2C=C1O` (stereo not drawn) [Compound 3, 3,4,6a, 10-Tetrahydroxy-6,7-dihydroindeno[2,1-c]chromen-9-one], for which the IC50 against BoNT/A LC came out at 2.97 ± 0.048 µM; in experiment [1] it was 0.86 µM. For the same molecule, the inhibition at 100 µM on BoNT/A LC was 92.7%. Further, the “inhibition … in M-17-TR2 cells” value against BoNT/A is listed as “significantly inhibit”.

Take `Cc1cc2c(C(C)C)c(O)c(O)c(C=O)c2c(O)c1-c1c(C)cc2c(C(C)C)c(O)c(O)c(C=O)c2c1O` [Compound 4, 2, 2′-Bis(formyl-1,6,7-trihydroxy-5-isopropyl-3-methylnaphthalene)]: on BoNT/A LC, half-maximal inhibition (IC50) required 3.15 ± 0.043 µM and the inhibition at 100 µM was 100%. The IC50 in experiment [1] was found to be 11.4 µM.

Turning to `CCCCCCCCCCCC1=C(O)C(=O)C=C(O)C1=O` [Compound 5, 2,5-dihydroxy-3-undecylcyclohexa-2,5-diene-1,4-dione], on BoNT/A LC, the IC50 stood at 4.5 ± 0.035 µM and the inhibition at 100 µM worked out at 100%. In addition, the IC50 in experiment [1] turned out to be 13.5 µM.

As to `O=C1c2ccccc2C(=O)c2c(O)c(O)cc(O)c21` [Compound 6, 1,2,4-trihydroxyanthracene-9,10-dione], on BoNT/A LC, half-maximal inhibition (IC50) was put at 4.5 ± 0.0091 µM and the inhibition at 100 µM is 100%. For the same molecule, the IC50 in experiment [1] came out at 11.6 µM. Besides, the “inhibition … in M-17-TR2 cells” value against BoNT/A is on record as “significantly inhibit”.

As for `O=C(O)CCCCC1CCSS1` (stereo not drawn) [Compound 7, 5-(1,2-Dithiolan-3-yl)-pentanoic acid], on BoNT/A LC, the 50% inhibitory concentration (IC50) stood at 5.06 ± 0.055 µM and the inhibition at 100 µM was 90.5%. Also, in experiment [1], the IC50 was more than 20 µM.

With `Cc1c(C(=O)O)c(O)cc2c1C(=O)c1c(O)c([C@@H]3O[C@H](CO)[C@@H](O)[C@H](O)[C@H]3O)c(O)c(O)c1C2=O` [Compound 8, carminic acid], on BoNT/A LC, it took 6.8 ± 0.035 µM to reach half-maximal inhibition (IC50) and the inhibition at 100 µM is 85.1%. For the same molecule, in experiment [1], the IC50 was more than 20 µM.

For `O=c1oc2c3c4c(cc2c2c1CCC2)CCCN4CCC3` [Compound 9, 2,3,6,7,10,11-Hexahydro-1H,5H-cyclopenta[3,4][1]benzopyrano[6,7,8-ij]quinolizin-12(9H)-one], on BoNT/A LC, the concentration for half-maximal inhibition (IC50) amounted to 9.3 ± 1.59 µM and the inhibition at 100 µM was 83.3%. For the same molecule, in experiment [1], the IC50 is more than 20 µM. The “inhibition … in M-17-TR2 cells” value against BoNT/A is on record as “significantly inhibit”.

With `O=c1c(O)c(-c2ccc(O)c(O)c2)oc2c(O)c(O)cc(O)c12` [Compound 10, 2-(3,4-dihydroxyphenyl)-3,5,7,8-tetrahydroxychromen-4-one], on BoNT/A LC, half-maximal inhibition (IC50) required 0.27 ± 0.0049 µM and the inhibition at 100 µM stood at 104%. For the same molecule, the IC50 in experiment [1] is 0.239 µM. On BoNT/A, the “inhibition … in M-17-TR2 cells” value was “significantly inhibit”.

The term IC50 denotes the concentration that inhibits the measured activity by half. Usually inhibition stands for the drop in the measured response relative to a control, in per cent. Usually Ki stands for a dissociation constant, usually derived from enzyme kinetics or from competition with a known ligand. Higher therefore signals lower affinity.
